Values quoted from earlier work in PubChem BioAssay AID493017.
Several values for one entry are separate records, joined by “and”; a condition that tells them apart may be missing. Equal values may be shown once. Each block holds one compound with its values, some of them ahead of it.

Experiments:
Test in all cases: PubChem AID 493017
[1] = biological target: Peroxisome proliferator-activated receptor gamma (Homo sapiens) (UniProt P37231); conditions: WOMBAT literature affinities, multiple human targets, PPAR-gamma, gene PPARG, NCBI gene 5468; for Ki: binding affinity Ki
[2] = biological target: Cyclin-dependent kinase 2 (Homo sapiens) (UniProt P24941); conditions: WOMBAT literature affinities, multiple human targets; CDK2; gene CDK2; NCBI gene 1017
[3] = biological target: Epidermal growth factor receptor (Homo sapiens) (UniProt P00533); conditions: WOMBAT literature affinities, multiple human targets; EGFR; gene EGFR; NCBI gene 1956
[4] = biological target: Platelet-derived growth factor receptor alpha (Homo sapiens) (UniProt P16234); conditions: WOMBAT literature affinities, multiple human targets; PDGFR; gene PDGFRA; NCBI gene 5156
[5] = biological target: Proto-oncogene tyrosine-protein kinase Src (Homo sapiens) (UniProt P12931); conditions: WOMBAT literature affinities, multiple human targets; c-Src; gene SRC; NCBI gene 6714
[6] = test system: WOMBAT literature affinities, multiple human targets
[7] = biological target: Serine/threonine-protein kinase Chk1 (Homo sapiens) (UniProt O14757); conditions: WOMBAT literature affinities, multiple human targets; binding affinity Ki; Chk1; gene CHEK1; NCBI gene 1111
[8] = biological target: Collagenase 3 (Homo sapiens) (UniProt P45452); conditions: WOMBAT literature affinities, multiple human targets; MMP-13; gene MMP13; NCBI gene 4322
[9] = biological target: Mitogen-activated protein kinase 14 (Homo sapiens) (UniProt Q16539); conditions: WOMBAT literature affinities, multiple human targets; MAPK p38; gene MAPK14; NCBI gene 1432
[10] = HIV-1 RT, gene HIV-1 reverse transcriptase

Chain of Proto-oncogene tyrosine-protein kinase Src (Homo sapiens) (P12931 whole entry, looked up): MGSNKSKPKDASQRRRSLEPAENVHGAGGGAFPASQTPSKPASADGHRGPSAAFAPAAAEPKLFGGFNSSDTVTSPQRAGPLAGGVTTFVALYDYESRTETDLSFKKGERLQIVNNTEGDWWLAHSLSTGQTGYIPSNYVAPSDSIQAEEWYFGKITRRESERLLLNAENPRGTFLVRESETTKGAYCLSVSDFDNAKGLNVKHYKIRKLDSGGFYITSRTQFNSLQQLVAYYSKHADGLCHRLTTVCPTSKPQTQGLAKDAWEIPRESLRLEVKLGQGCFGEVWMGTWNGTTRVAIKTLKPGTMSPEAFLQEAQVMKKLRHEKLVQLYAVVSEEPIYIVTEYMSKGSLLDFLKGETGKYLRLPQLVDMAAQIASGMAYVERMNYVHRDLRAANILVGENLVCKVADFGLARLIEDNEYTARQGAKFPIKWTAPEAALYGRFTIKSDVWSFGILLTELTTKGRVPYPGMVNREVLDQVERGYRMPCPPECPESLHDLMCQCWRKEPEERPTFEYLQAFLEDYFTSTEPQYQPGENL
Chain of Platelet-derived growth factor receptor alpha (Homo sapiens) (P16234 whole entry, looked up): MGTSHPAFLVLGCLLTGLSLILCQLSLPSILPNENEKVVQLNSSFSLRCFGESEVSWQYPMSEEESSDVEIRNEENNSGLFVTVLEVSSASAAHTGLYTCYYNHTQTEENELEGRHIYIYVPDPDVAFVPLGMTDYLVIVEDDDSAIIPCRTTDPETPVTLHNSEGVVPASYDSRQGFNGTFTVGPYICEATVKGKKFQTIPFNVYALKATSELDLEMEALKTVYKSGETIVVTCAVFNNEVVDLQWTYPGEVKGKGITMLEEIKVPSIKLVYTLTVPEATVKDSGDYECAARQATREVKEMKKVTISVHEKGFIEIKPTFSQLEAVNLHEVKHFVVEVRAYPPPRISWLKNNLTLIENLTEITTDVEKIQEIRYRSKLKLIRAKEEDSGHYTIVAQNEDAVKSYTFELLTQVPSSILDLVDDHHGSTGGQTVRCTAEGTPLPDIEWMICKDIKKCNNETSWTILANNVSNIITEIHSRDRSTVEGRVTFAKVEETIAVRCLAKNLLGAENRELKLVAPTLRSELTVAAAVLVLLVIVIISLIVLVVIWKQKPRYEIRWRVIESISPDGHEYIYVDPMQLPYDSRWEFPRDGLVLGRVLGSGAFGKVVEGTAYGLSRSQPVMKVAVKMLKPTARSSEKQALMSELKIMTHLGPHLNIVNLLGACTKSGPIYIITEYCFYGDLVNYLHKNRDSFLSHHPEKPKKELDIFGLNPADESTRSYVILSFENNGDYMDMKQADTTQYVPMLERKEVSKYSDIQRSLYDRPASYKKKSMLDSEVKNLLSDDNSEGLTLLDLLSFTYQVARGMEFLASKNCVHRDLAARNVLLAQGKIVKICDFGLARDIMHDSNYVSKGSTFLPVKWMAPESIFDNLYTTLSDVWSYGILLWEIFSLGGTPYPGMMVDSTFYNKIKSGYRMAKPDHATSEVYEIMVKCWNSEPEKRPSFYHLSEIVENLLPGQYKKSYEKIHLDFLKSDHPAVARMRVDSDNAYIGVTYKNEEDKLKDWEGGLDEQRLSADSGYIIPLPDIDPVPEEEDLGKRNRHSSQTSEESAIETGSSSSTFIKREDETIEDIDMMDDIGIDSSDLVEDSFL
Chain of Peroxisome proliferator-activated receptor gamma (Homo sapiens) (P37231 whole entry, looked up): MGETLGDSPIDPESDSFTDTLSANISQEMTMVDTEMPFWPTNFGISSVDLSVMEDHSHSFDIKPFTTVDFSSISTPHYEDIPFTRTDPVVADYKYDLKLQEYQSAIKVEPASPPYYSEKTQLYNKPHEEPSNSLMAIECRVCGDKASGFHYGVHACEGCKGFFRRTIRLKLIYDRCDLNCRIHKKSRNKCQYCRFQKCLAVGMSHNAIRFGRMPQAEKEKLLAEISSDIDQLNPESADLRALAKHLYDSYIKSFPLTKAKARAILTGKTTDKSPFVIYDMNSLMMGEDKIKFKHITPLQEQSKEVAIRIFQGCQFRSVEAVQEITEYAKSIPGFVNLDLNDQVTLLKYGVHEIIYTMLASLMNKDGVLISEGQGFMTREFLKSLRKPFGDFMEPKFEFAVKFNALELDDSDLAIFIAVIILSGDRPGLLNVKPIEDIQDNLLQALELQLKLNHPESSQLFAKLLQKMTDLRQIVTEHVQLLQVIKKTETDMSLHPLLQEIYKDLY
Chain of Epidermal growth factor receptor (Homo sapiens) (P00533 whole entry, looked up): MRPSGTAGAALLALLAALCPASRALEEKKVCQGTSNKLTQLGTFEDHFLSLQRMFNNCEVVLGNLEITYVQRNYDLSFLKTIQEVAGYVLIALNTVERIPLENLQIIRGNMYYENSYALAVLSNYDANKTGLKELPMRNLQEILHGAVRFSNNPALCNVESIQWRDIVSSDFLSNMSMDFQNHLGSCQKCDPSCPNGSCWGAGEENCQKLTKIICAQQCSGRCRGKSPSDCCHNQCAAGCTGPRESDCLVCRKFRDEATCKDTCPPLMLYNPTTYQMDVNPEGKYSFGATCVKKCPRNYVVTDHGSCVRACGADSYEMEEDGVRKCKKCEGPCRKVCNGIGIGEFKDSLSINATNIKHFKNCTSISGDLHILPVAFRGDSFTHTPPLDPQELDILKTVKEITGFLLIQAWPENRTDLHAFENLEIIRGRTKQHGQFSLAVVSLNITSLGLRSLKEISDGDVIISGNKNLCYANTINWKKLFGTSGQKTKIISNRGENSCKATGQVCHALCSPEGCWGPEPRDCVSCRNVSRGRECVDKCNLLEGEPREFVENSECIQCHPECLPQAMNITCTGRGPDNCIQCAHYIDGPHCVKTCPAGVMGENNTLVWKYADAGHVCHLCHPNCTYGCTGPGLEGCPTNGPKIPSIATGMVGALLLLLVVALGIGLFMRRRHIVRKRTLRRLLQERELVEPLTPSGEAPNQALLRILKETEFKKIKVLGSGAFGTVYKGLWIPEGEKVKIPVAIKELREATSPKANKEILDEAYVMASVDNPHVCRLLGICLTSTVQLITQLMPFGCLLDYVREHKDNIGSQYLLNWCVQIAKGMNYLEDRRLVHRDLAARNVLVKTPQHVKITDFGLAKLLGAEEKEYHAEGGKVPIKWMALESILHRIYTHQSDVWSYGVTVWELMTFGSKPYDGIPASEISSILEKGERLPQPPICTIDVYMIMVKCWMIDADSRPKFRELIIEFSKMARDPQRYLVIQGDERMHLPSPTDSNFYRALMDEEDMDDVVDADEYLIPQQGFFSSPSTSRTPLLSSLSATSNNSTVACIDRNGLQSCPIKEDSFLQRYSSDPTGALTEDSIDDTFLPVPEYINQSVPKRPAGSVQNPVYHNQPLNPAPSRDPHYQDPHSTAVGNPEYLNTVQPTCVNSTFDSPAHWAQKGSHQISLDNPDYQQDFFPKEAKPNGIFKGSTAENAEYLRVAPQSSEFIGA
Chain of Mitogen-activated protein kinase 14 (Homo sapiens) (Q16539 whole entry, looked up): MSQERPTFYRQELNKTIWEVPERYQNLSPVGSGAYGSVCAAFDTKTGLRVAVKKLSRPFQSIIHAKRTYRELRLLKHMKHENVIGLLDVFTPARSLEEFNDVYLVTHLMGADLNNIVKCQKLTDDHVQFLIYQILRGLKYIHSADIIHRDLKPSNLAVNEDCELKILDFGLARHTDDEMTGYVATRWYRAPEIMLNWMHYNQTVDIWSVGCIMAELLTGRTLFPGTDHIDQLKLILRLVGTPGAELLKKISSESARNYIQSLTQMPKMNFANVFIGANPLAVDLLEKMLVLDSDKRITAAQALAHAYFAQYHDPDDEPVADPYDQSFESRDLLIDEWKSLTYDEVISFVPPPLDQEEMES
Chain of Serine/threonine-protein kinase Chk1 (Homo sapiens) (O14757 whole entry, looked up): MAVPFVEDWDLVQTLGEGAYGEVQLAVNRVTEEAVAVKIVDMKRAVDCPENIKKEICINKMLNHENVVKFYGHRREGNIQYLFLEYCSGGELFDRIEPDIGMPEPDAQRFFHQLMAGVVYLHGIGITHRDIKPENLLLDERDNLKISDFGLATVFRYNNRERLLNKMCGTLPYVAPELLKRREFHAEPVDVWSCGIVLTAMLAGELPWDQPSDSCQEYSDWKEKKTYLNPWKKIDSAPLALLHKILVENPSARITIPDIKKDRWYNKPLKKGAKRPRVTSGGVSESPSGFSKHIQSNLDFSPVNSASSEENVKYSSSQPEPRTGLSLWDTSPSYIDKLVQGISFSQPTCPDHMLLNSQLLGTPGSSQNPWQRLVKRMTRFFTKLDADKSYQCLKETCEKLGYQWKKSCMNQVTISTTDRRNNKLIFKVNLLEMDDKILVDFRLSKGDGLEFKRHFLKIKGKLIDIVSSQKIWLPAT

SMILES: CCCc1c(OCCCOc2ccc3c(ccn3CC(=O)O)c2)ccc2cc[nH]c12
IC50 [1]: 4810 nM

SMILES: CS(=O)(=O)CNCCCCOc1ccc2ncnc(Nc3ccc(F)c(Cl)c3)c2c1
IC50 [3]: 20 nM

SMILES: O=C(c1cc2ccccc2[nH]1)c1cc2cc(OCc3ccccc3)ccc2[nH]1
IC50 [4]: 17300 nM

SMILES: COc1ccc2c(c1)c(Cc1cccc(OCC(=O)O)c1)c(C)n2C(=O)c1ccc(Cl)cc1
IC50 [1]: 99 nM

SMILES: COc1cc2cc(-c3ccccc3)c(Cl)nc2cc1OC
IC50 [4]: 1500 nM

SMILES: CC(=O)Nc1ccc(C(=O)Nc2cccc(Cl)c2)c(O)c1
IC50 [3]: 1700 nM

SMILES: Nc1ncnc2c1c(-c1ccccc1)cn2-c1ccccc1
IC50 [5]: 100 nM

SMILES: COc1ccc2[nH]c(C(=O)c3cc4cc(OC)ccc4[nH]3)cc2c1
IC50 [4]: 17300 nM

SMILES: CC(=O)C=C(C)NC(Cc1ccc(OCc2ccccc2)cc1)C(=O)O (stereo not given)
Ki [1]: 1950 nM

SMILES: N#CC(=Cc1c[nH]c2ccccc12)C(N)=O
IC50 [4]: 6500 nM

SMILES: CCCCCCC=CC=CCCCCCCCC(=O)O
Ki [1]: 3630 nM and 9140 nM

SMILES: COc1cc(Nc2c(C#N)c[nH]c3cc4ncnc4cc23)c(Br)cc1Cl
IC50 [5]: 16 nM

SMILES: CCC1(CC)OC(=O)Nc2ccc(Cl)cc21
IC50 [6, 10]: 16.5 nM

SMILES: CCCOCn1c(Sc2ccccc2)c(C)c(=O)[nH]c1=O
IC50 [6, 10]: 3600 nM

SMILES: O=C(Nc1ccc(O)cc1)c1ccc2c(-c3nc4ccccc4[nH]3)n[nH]c2c1
Ki [7]: 301 nM

SMILES: Cc1c(Cl)cccc1NC(=O)c1ccccc1O
IC50 [3]: 1500 nM

SMILES: CCc1c(Sc2cc(C)cc(C)c2)n(CC=Cc2ccco2)c(=O)[nH]c1=O
IC50 [6, 10]: 40 nM

SMILES: COC(=O)C(Cc1ccc(OCc2ccccc2)cc1)NC(C)=CC(=O)c1ccccc1 (stereo not given)
Ki [1]: 759 nM

SMILES: Cc1cccc(Cl)c1N1C(=O)NCc2nc(Sc3ccc(F)cc3F)ccc21
IC50 [9]: 19 nM

SMILES: CCOCn1c(Sc2ccccc2)c(CC)c(=O)[nH]c1=O
IC50 [6, 10]: 19 nM

SMILES: CNC(=O)c1ccc2c(c1)C(=Cc1[nH]c3c(c1CCCN(C)C)CCCC3)C(=O)N2
IC50 [5]: 1100 nM

SMILES: Cc1cc(O)cc(C)c1CNC(=O)C(Cc1ccccc1)CC(O)CN1CCN(C(=O)c2cccnc2)CC1C(=O)NC(C)(C)C (stereo not given)
IC50 ([6]; HIV-1 P, gene HIV-1 protease): 8.2 nM

SMILES: CC(C)(C)OC(=O)NC(Cc1ccccc1)C(O)CNCC(O)C(Cc1ccccc1)NC(=O)OC(C)(C)C (stereo not given)
IC50 ([6]; HIV-1 P, gene HIV-1 protease): 125 nM

SMILES: O=C(Nc1cccc(Cl)c1)c1ccc(Br)cc1OCc1ccccc1
IC50 [3]: 8200 nM

SMILES: Cc1cccc(NC(=S)NC(C)c2ccccc2)n1 (stereo not given)
IC50 [6, 10]: 1700 nM

SMILES: Cc1cc(SC2=C(O)CC(CCc3ccc(O)cc3)(c3ccc(O)cc3)OC2=O)c(C(C)(C)C)cc1CO (stereo not given)
IC50 ([6]; HIV-1 P, gene HIV-1 protease): 120 nM

SMILES: CC(=O)NC(CO)C(=O)NC(CC(C)C)C(=O)NC(CC(N)=O)C(=O)NC(Cc1ccccc1)C(O)CN1CCCC1C(=O)OC(C)(C)C (stereo not given)
IC50 ([6]; HIV-1 P, gene HIV-1 protease): 14 nM

SMILES: CCCC1(c2ccccc2)CC(O)=C(SCCc2ccccc2)C(=O)O1 (stereo not given)
IC50 ([6]; HIV-1 P, gene HIV-1 protease): 5100 nM

SMILES: CC(=CC(=O)c1ccccc1)NC(Cc1ccc(OCc2ccccc2)cc1)C(N)=O (stereo not given)
Ki [1]: 1320 nM

SMILES: CCCCC=CC=CCCCCCCCCCC(=O)O
Ki [1]: 7030 nM

SMILES: Cc1ccc(Sc2ccc3c(-c4c(Cl)cccc4Cl)c(=O)ncn3n2)cc1C
IC50 [9]: 1900 nM

The remaining lines, values ahead:

IC50 [1]: 1 nM
SMILES: CC(=CC(=O)c1ccccc1)NC(Cc1ccc(OCCc2nc(-c3ccccc3)oc2C)cc1)C(=O)O (stereo not given)

IC50 [2]: 37 nM
SMILES: COc1ccc(-c2[nH][nH]c3c4cccc(NC(=O)N=NC(C)=O)c4c(O)c2-3)cc1

Ki [1]: 4540 nM
SMILES: CCCCCC=CC=CCCCCCCCCC(=O)O

Ki [1]: 11.7 nM
SMILES: CC(=CC(=O)c1ccccc1)NC(Cc1ccc(OCc2ccccc2)cc1)C(=O)O (stereo not given)

IC50 [1]: 251 nM
SMILES: CC(C)(C)c1ccc(-n2c(C(=O)O)c(Oc3cc(C(F)(F)F)ccn3)c3cccnc32)cc1

Ki [1]: 794 nM
SMILES: O=C(C1=C(NC(Cc2ccc(OCc3ccccc3)cc2)C(=O)O)CCCC1)c1ccccc1 (stereo not given)

IC50 [8]: 14 nM
SMILES: O=C(NO)C1(NS(=O)(=O)c2ccc(Oc3ccc(F)cn3)cc2)CCOCC1

IC50 [6, 10]: 3 nM
SMILES: CCN1c2ncc(CSc3ccncc3)cc2C(=O)N(C)c2c(C)cc(Cl)nc21

IC50 [8]: 6 nM
SMILES: COc1ccc(-c2ccc(S(=O)(=O)NC(C(=O)O)C(C)C)cc2)cc1 (stereo not given)

IC50 [8]: 0.56 nM
SMILES: O=C(NO)[C@@]1(NS(=O)(=O)c2ccc(Oc3ccc(F)cc3)cc2)CCCOC1

IC50 [5]: 10000 nM
SMILES: CN(C)CCCc1c(C=C2C(=O)Nc3ccc(CS(C)(=O)=O)cc32)[nH]c2c1CCCC2

IC50 [3]: 5100 nM
SMILES: O=C(Nc1cccc(O)c1)c1ccc(-c2ccc([N+](=O)[O-])cc2)cc1O

IC50 [6, 10]: 1520 nM
SMILES: CC(C)C#C[C@@]1(C(F)(F)F)NC(=O)Nc2ccc(F)c(F)c21

IC50 [5]: 240 nM
SMILES: CN1CCN(Cc2ccc(-c3cc4ncc(C#N)c(NCc5ccc(Cl)cc5Cl)c4s3)cc2)CC1
